According to patent US20250312326A1, “PHARMACEUTICAL COMPOSITION OF ANTIPLATELET DRUG, AND USE THEREOF” (SHANGHAI CUREGENE PHARMACEUTICAL CO., LTD., priority 2022, published 2025):

Experiments:
[1] = Pharmacokinetic in rats: thiol active metabolite in plasma; format: in vivo, Male Sprague-Dawley rats; conditions: rat plasma, oral, 10 mg/kg
Experimental: Male Sprague-Dawley rats were used to conduct pharmacokinetic experiment.
Test compounds (clopidogrel and exemplary compounds provided herein) was administrated orally or intravenously to rat under fast condition. Blood samples were collected via jugular vein at 5 min, 15 min, 30 min, 60 min and 120 min time points with EDTA-K2 (anticoagulant), 3′-methoxyphenacyl bromide (MPBr, derivatization reagent) and phenylmethylsulfonyl fluoride (PMSF, stabilizer). Plasma samples were then harvested by centrifuging at 1500 g for 10 min under 2˜8° C. and stored at −80° C. after separation. Plasma samples were loaded to a LC-MS/MS instrument after extraction to determine the concentration of the thiol active metabolite.

[2] = test system: platelet aggregation; experiment: Antiaggregatory action in rats (ex vivo ADP-induced platelet aggregation); design: species or system Male Sprague-Dawley rats; conditions: rat, oral
Experimental: Male Sprague-Dawley rats were used for ex vivo platelet aggregation experiments. […] The number of platelets in PRP was measured by hematology analyzer (Siemens, ADVIA2120), and adjusted to 4×10^8/mL with PPP. Platelet aggregation was determined using turbidimetric aggregometry method by an automatic platelet aggregometer ([…]). The aggregometer was primarily warmed up to 37° C., and PRP (290 μL) sample was added to the cuvette and set in the automatic platelet aggregometer. […] Antiaggregatory action of test compounds was expressed as inhibition (%) which determined by the relation: […]

[3] = loading dose 300-600 mg; cited from earlier work
[4] = human body; cited from earlier work

Question: Which “peak concentration of the thiol active metabolite compared with clopidogrel” value (shortened to “peak concentration … compared with clopidogrel”) [1] does the source give for `COC(=O)[C@H](c1ccccc1Cl)N1CCC(SCOC(=O)OC(C)C)/C(=C/C(=O)O)C1` (stereo partly shown) [Compound 1a] here?
Answer: significantly higher

Question: Which inhibition at 2 mg/kg ([2]; Platelet, 2 mg/kg, ADP 10 μM, read-out: maximum inhibition of platelet aggregation) does the source give for `COC(=O)[C@H](c1ccccc1Cl)N1CCC(SCOC(=O)OC(C)C)/C(=C\C(=O)O)C1` (stereo partly shown) [Compound 1b] here?
Answer: ~45%

Question: What about the “time to maximum inhibition of platelet aggregation” value ([2]; 2 mg/kg) of the same molecule?
Answer: 60 min

Question: What about the “peak concentration … compared with clopidogrel” value [1] of the same molecule?
Answer: significantly higher

Question: For `CCOC(=O)/C=C1\CN([C@H](C(=O)OC)c2ccccc2Cl)CCC1SCOC(=O)OC(C)C` (stereo partly shown) [Compound 2a], which “peak concentration … compared with clopidogrel” value [1] is on record?
Answer: significantly higher

Question: What does the source list for `COC(=O)[C@H](c1ccccc1Cl)N1CCc2sccc2C1` [clopidogrel, Clopidogrel]?
Answer: onset of therapeutic effect after loading dose administration [3]: 2 h; inhibition at 10 mg/kg ([2]; Platelet, 10 mg/kg, ADP 10 μM, read-out: maximum inhibition of platelet aggregation): ~45%; time to maximum inhibition of platelet aggregation ([2]; 10 mg/kg): about 120 minutes; fraction producing inactive metabolites through non-oxidative hydrolysis [4]: about 85%; fraction undergoing two-step oxidation (cytochrome P450, mainly CYP2C19) to active metabolite H4 [4]: about 15%
